Measured values reported in paper PMC5609566, “Elucidation of antimicrobial activity and mechanism of action by N-substituted carbazole derivatives” (Bioorganic & Medicinal Chemistry Letters, 2017).
≈ marks a conversion by molar mass, not a printed value.

Key:
[1] = molecular target: T1, Mammalian Ca^2+-ATPase (Oryctolagus cuniculus, UniProt P04191); assay: Colorimetric ATPase assay, rabbit sarcoplasmic reticulum membranes (SERCA); assay type: biochemical
T1 construct: from tissue; host or cells: rabbit hind leg muscle, sarcoplasmic reticulum membranes (gift, Aarhus University)
T1 sequence (P04191 1-994 isoform P04191-2): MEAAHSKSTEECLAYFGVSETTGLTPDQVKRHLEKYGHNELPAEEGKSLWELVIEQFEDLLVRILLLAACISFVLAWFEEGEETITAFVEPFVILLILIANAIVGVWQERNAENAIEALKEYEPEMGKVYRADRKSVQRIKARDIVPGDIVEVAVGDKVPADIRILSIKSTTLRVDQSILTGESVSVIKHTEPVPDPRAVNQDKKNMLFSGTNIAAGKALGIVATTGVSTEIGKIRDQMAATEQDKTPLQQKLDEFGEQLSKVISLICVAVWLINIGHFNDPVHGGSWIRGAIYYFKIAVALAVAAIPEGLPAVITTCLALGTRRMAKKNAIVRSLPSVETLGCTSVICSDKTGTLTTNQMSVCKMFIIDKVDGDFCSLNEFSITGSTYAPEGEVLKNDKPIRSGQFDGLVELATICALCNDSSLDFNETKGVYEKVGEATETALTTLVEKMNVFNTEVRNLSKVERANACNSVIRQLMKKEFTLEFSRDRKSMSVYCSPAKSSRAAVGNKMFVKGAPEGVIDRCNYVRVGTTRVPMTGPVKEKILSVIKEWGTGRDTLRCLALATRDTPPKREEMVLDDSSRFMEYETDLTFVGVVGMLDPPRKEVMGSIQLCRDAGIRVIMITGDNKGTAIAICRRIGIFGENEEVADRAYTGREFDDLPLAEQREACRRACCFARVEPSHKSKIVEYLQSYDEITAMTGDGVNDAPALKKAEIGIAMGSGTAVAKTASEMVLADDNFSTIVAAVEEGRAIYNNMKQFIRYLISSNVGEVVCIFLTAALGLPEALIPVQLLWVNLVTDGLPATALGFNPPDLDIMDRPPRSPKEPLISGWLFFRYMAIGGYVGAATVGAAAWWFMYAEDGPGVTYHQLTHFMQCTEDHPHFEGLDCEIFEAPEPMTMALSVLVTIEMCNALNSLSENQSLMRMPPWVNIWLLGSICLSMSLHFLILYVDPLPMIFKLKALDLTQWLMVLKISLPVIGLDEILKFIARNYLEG
From the text: (§1) To investigate the H^+-ATPase inhibitory effect of the compounds we isolated plasma membranes containing H^+-ATPase from S. cerevisiae and C. albicans cells.[15] Plasma membranes isolated from pig kidney as well as endoplasmic reticulum membranes from rabbit hind leg muscle were used to counter-screen compounds for activity against mammalian Na^+,K^+-ATPase and Ca^2+-ATPase, respectively. Prior to their use, fungal plasma membrane batches were validated by determining the maximum ATP hydrolysis activity, the pH optimum of the ATPase activity, and the sensitivity to inhibition by orthovanadate. ATPase activity was determined by a colorimetric assay that measures the amount of inorganic phosphate liberated over time, as described in Kjellerup et al., 2017.[15] Table 2, Table 3, Table 4 list the IC50 values obtained by measuring the concentration dependence of the ATPase activity for the fifteen carbazole compounds with each of the four membrane preparations.
(§2) Pma1-containing plasma membranes were prepared from S. cerevisiae RS72 yeast cells that had been transformed with the full-length cDNA of the S. cerevisiae plasma membrane H^+-ATPase isoform PMA1 under control of the PMA1 promoter, using the same procedure as described in Kongstad et al., 2014^1. For the preparation of C. albicans membranes, a 100 ml overnight culture grown in YPD (10 g/L yeast extract (BD, Sparks, MD), 20 g/L Bacto peptone (BD), 20 g/L D-(+)-glucose) was transferred to 1 L YPD and grown for a further 7 h at RT with agitation (150 rpm), followed by cell harvesting and subsequent membrane preparation using the same procedure as described in Kongstad et al., 2014^1. […] Rabbit sarcoplasmic reticulum membranes containing Sarco/Endoplasmic Reticulum Ca^2+ ATPase (SERCA) were kindly provided by Dr. Claus E. Olesen and Dr. Jesper V. Møller, Aarhus University and prepared as described in Andersen et al., 1985^2. Pig kidney Na^+,K^+-ATPase was kindly provided by Dr. Natalya Fedosova, Aarhus University and prepared as described in Klodos et al., 2002^3.
(§3) The compound libraries were purchased from Enamine Ltd, Ukraine and Chembridge Corp, USA. ATPase activity was determined by measuring the amount of liberated phosphate from ATP hydrolysis. […] Reactions were initiated by the addition of Na-ATP to a final concentration of 2.5 mM (Pma1 and Na^+,K^+-ATPase) or 5 mM (SERCA), followed by 30 minutes incubation at 30 °C. The amount of liberated phosphate was determined colorimetrically after addition of STOP solution (mixture of L-ascorbic acid, ammonium heptamolybdate tetrahydrate, and HCl to give final concentrations of 65 mM, 2.2 mM, and 189 mM, respectively) with 5 minutes incubation at room temperature (RT) followed by addition of arsenite solution (mixture of NaAsO2, sodium citrate dihydrate, and acetic acid to give final concentrations of 3.1 mM, 28 mM, and 141 mM, respectively). Absorption was measured at 860 nm after an additional 30 minutes incubation at RT.

[2] = molecular target: T2, Mammalian Na^+,K^+-ATPase (Sus scrofa, UniProt P05024); assay: Colorimetric ATPase assay, pig kidney membranes; assay type: biochemical; conditions: for IC50: pH 7, n = 3, read-out: ATP hydrolysis IC50 Mammalian Na^+,K^+-ATPase
T2 construct: from tissue; host or cells: pig kidney plasma membranes (gift, Aarhus University; prepared per Klodos et al., 2002)
From the text: as §1, §2, §3

[3] = system: Candida albicans SC5314; assay: Fungal growth inhibition MIC (MFC); assay type: cell-based; conditions: for MIC: Candida albicans SC5314, RPMI-1640; for MFC: Candida albicans SC5314, value in brackets
From the text: (§4) We subsequently assessed the carbazole series for antifungal activity, as described in Kjellerup et al., 2017.[15] Table 2, Table 3, Table 4, Table 5 list the minimum inhibitory concentrations (MIC) and the minimum fungicidal concentrations (MFC) of the fifteen compounds tested against the yeasts Saccharomyces cerevisiae, Candida albicans, C. krusei, and two isolates of C. glabrata (a wild-type strain ATCC 90030 and a clinical azole-resistant isolate Cg003 with increased efflux pump expression[19]), and the molds Aspergillus fumigatus and A. flavus. MIC was defined as the lowest concentration inhibiting visual growth of the microorganism in RPMI-1640 media. […] However, in several cases antifungal activity against molds was minimal, Table 5.
(§5) Compound hits from the library screening were evaluated against baker yeast S. cerevisiae and C. albicans (ATCC 90028). The minimum inhibitory concentration (MIC) was defined as the lowest concentration inhibiting visual growth of the microorganism and this was determined in triplicate. Standard errors were typically less than 5%. MICs for synthesized compounds were determined on the following fungal isolates: Saccharomyces cerevisiae (ATCC 9763), Candida albicans (SC5314), Candida krusei (ATCC 6258), Candida glabrata (ATCC 90030), Aspergillus flavus (ATCC MYA-1005) and Aspergillus fumigatus (ATCC 13073), which were purchased from American Type Culture Collection, and C. glabrata strain Cg003, which was kindly provided by Julius Subik, Comenius University in Bratislava, Slovak Republic. Cg003 is a clinical isolate, characterized to be resistant to fluconazole and itraconazole due to overexpression of the multidrug resistance efflux pumps Cdr1p and Cdr2p^5. The fungal growth assay was performed as described in Kjellerup et al., 2017^6.

[4] = system: Candida glabrata ATCC 90030; assay: Fungal growth inhibition MIC (MFC); assay type: cell-based; conditions: Nakaseomyces glabratus, ATCC90030, Candida glabrata ATCC 90030 (wild-type); for MIC: RPMI-1640; for MFC: value in brackets
From the text: as §4, §5

[5] = system: Candida glabrata Cg003; assay: Fungal growth inhibition MIC (MFC); assay type: cell-based; conditions: Nakaseomyces glabratus, Candida glabrata Cg003 (clinical azole-resistant isolate); for MIC: RPMI-1640; for MFC: value in brackets
From the text: as §4, §5

[6] = system: Candida krusei ATCC 6258; assay: Fungal growth inhibition MIC (MFC); assay type: cell-based; conditions: Pichia kudriavzevii, ATCC6258; for MIC: Candida krusei ATCC 6258, RPMI-1640; for MFC: Candida krusei ATCC 6258, value in brackets
From the text: as §4, §5

[7] = system: Saccharomyces cerevisiae ATCC 9763; assay: Fungal growth inhibition MIC (MFC); assay type: cell-based; conditions: ATCC9763; for MIC: Saccharomyces cerevisiae ATCC 9763, RPMI-1640; for MFC: Saccharomyces cerevisiae ATCC 9763, value in brackets
From the text: as §4, §5

Compound	IC50 [1]	IC50 [2]	MIC [3]	MFC [3]	MIC [4]	MFC [4]	MIC [5]	MFC [5]	MIC [6]	MFC [6]	MIC [7]	MFC [7]	selectivity among the four ATPases ([2]; lower IC50 value on Na^+,K^+-ATPase)
COc1ccc2c(c1)c1cc(OC)ccc1n2CC(O)CN1CCN(C)CC1 (stereo not shown) [Compound 11, 1-(3,6-dimethoxy-9H-carbazol-9-yl)-3-(4-methylpiperazin-1-yl)propan-2-ol]	> 167 µM	> 167 µM	> 75 µM	> 75 µM	> 75 µM	> 75 µM	> 75 µM	> 75 µM	> 75 µM	> 75 µM	> 75 µM	> 75 µM	
CN1CCN(CC(O)Cn2c3ccc(C#N)cc3c3cc(C#N)ccc32)CC1 (stereo not shown) [Compound 12, 9-(2-hydroxy-3-(4-methylpiperazin-1-yl)propyl)-9H-carbazole-3,6-dicarbonitrile]	92.7 ± 13.1 µM	10.5 ± 1.4 µM	> 75 µM	> 75 µM	> 75 µM	> 75 µM	> 75 µM	> 75 µM	> 75 µM	> 75 µM	> 75 µM	> 75 µM	pronounced selectivity towards Na^+,K^+-ATPase
CN1CCN(CC(O)Cn2c3ccc(O)cc3c3cc(O)ccc32)CC1 (stereo not shown) [Compound 13, 9-(2-hydroxy-3-(4-methylpiperazin-1-yl)propyl)-9H-carbazole-3,6-diol]	> 167 µM	> 167 µM	> 75 µM	> 75 µM	> 75 µM	> 75 µM	> 75 µM	> 75 µM	> 75 µM	> 75 µM	> 75 µM	> 75 µM	
CN(C)CCCn1c2ccc(Cl)cc2c2cc(Cl)ccc21 [Compound 14, 3-(3,6-dichloro-9H-carbazol-9-yl)-N,N-dimethyl-propan-1-amine]	13 ± 2.1 µM	2.1 ± 0.5 µM	24 µM (≈ 7.71 µg/mL)	75 µM (≈ 24.1 µg/mL)	24 µM (≈ 7.71 µg/mL)	24 µM (≈ 7.71 µg/mL)	24 µM (≈ 7.71 µg/mL)	75 µM (≈ 24.1 µg/mL)	13 µM (≈ 4.18 µg/mL)	24 µM (≈ 7.71 µg/mL)	5.8 µM (≈ 1.86 µg/mL)	16 µM (≈ 5.14 µg/mL)	
CN(C)CCCCn1c2ccc(Cl)cc2c2cc(Cl)ccc21 [Compound 15]	17.5 ± 11.4 µM	5.1 ± 0.8 µM	24 µM (≈ 8.05 µg/mL)	24 µM (≈ 8.05 µg/mL)	7.5 µM (≈ 2.51 µg/mL)	7.5 µM (≈ 2.51 µg/mL)	7.5 µM (≈ 2.51 µg/mL)	24 µM (≈ 8.05 µg/mL)	7.5 µM (≈ 2.51 µg/mL)	16 µM (≈ 5.36 µg/mL)	2.4 µM (≈ 0.805 µg/mL)	5 µM (≈ 1.68 µg/mL)	
CN1CCN(CCCn2c3ccc(Cl)cc3c3cc(Cl)ccc32)CC1 [Compound 16, 3,6-dichloro-9-(3-(4-methylpiperazin-1-yl)propyl)-9H-carbazole]	23.2 ± 6.4 µM	2.5 ± 0.6 µM	24 µM (≈ 9.03 µg/mL)	24 µM (≈ 9.03 µg/mL)	7.5 µM (≈ 2.82 µg/mL)	7.5 µM (≈ 2.82 µg/mL)	7.5 µM (≈ 2.82 µg/mL)	7.5 µM (≈ 2.82 µg/mL)	7.5 µM (≈ 2.82 µg/mL)	7.5 µM (≈ 2.82 µg/mL)	2.4 µM (≈ 0.903 µg/mL)	2.4 µM (≈ 0.903 µg/mL)	
